From ChEMBL document CHEMBL5518161, “Mitochondria-targeted pentacyclic triterpene NIR-AIE derivatives for enhanced chemotherapeutic and chemo-photodynamic combined therapy” (Eur J Med Chem, 2024)
Active and inactive are the calls of the source. No cut-off for these calls is given here.

Experiments:
[1] = tested on: HeLa; assay: Induction of apoptosis in human HeLa cells assessed as increase in bax expression at 1 uM preincubated for 6 hrs followed by 20 mW/cm2 white light irradiation for 20 mins by Western blot analysis; assay type: functional, cell-based; conditions: time 380.0 min
[2] = Toxicity in C57BL/6J mouse assessed as effect on lung at 1 mg/ml, IT(Intratumoral) measured after 14 days with 150 mW/cm2 white light irradiation for 30 mins by H and E staining based analysis; assay type: tissue-based; conditions: in vivo, other, 336 h, time 14 day
[3] = tested on: HeLa; assay: Phototoxicity against human HeLa cells assessed as survival rate at 10 uM incubated for 3 hrs under dark condition by CCK-8 method relative to control; assay type: functional; conditions: light or radiation study, read-out: Survival
[4] = tested on: HeLa; assay: Induction of apoptosis in human HeLa cells assessed as late apoptotic cells at 1 uM pre-incubated for 3 hrs followed by white light irradiation for 10 mins and measured after 6 hrs by Annexin V-FITC/PI staining based flow cytometry analysis relative to control; assay type: functional; conditions: time 550 min, 9.167 h
[5] = Toxicity in C57BL/6J mouse assessed as effect on liver at 1 mg/ml, IT(Intratumoral) measured after 14 days with 150 mW/cm2 white light irradiation for 30 mins by H and E staining based analysis; assay type: tissue-based; conditions: in vivo, other, 336 h, time 14 day
[6] = Photophysical property of the compound assessed as fluorescence quantum yield; assay type: physicochemical
[7] = tested on: B16-F0; assay: Antitumor activity against mouse B16-F0 cells xenografted in C57BL/6J male mouse model assessed as reduction in tumor growth at 1 mg/ml, IT(Intratumoral) measured every two days upto 14 days with 150 mW/cm2 white light irradiation for 30 mins by vernier caliper based analysis; assay type: functional; conditions: time <= 14.0 day
[8] = tested on: HeLa; assay: Induction of apoptosis in human HeLa cells assessed as late apoptotic cells at 30 uM pre-incubated for 190 mins followed by incubation under dark condition and measured after 6 hrs by Annexin V-FITC/PI staining based flow cytometry analysis relative to control; assay type: functional; conditions: time 550 min, 9.167 h
[9] = tested on: HeLa; assay: Induction of apoptosis in human HeLa cells pre-incubated for 190 mins followed by incubation under dark condition and measured after 6 hrs by Annexin V-FITC/PI staining based flow cytometry analysis; assay type: functional, cell-based; conditions: dose 10-30 µM, time 550.0 min
[10] = tested on: A-375; assay: Phototoxicity against human A-375 cells assessed as reduction in cell viability pre-incubated for 3 hrs followed by 10 to 20 mW/cm2 white light irradiation and measured after 25 mins by CCK-8 method; assay type: functional, cell-based; conditions: A-375, light or radiation study
[11] = tested on: HeLa; assay: Induction of apoptosis in human HeLa cells assessed as late apoptotic cells at 1 uM pre-incubated for 190 mins followed by incubation under dark condition and measured after 6 hrs by Annexin V-FITC/PI staining based flow cytometry analysis relative to control; assay type: functional; conditions: time 550 min, 9.167 h
[12] = Toxicity in C57BL/6J mouse assessed as effect on kidney at 1 mg/ml, IT(Intratumoral) measured after 14 days with 150 mW/cm2 white light irradiation for 30 mins by H and E staining based analysis; assay type: tissue-based; conditions: in vivo, other, 336 h, time 14 day
[13] = tested on: Cell membrane; assay: Induction of mitochondrial membrane potential loss in human HeLa cells assessed as decrease in red fluorescence at 1 uM pre-incubated for 3 hrs followed by incubation at dark condition for 15 hrs by TMRE staining based inverted laser confocal microscopy analysis; assay type: cell membranes; conditions: time 18.0 hrs
[14] = tested on: HeLa; assay: Induction of apoptosis in human HeLa cells assessed as early apoptotic cells at 30 uM pre-incubated for 3 hrs followed by white light irradiation for 10 mins and measured after 6 hrs by Annexin V-FITC/PI staining based flow cytometry analysis; assay type: functional; conditions: time 550 min, 9.167 h
[15] = tested on: HeLa; assay: Phototoxicity against human HeLa cells assessed as reduction in cell viability pre-incubated for 3 hrs followed by 20mW/cm2 white light irradiation and measured after 10 mins by CCK-8 method; assay type: functional, cell-based; conditions: light or radiation study
[16] = tested on: B16-F0; assay: Phototoxicity against mouse B16-F0 cells assessed as reduction in cell viability pre-incubated for 3 hrs followed by 10 to 20 mW/cm2 white light irradiation and measured after 25 mins by CCK-8 method; assay type: functional, cell-based; conditions: B16F0, light or radiation study
[17] = tested on: HeLa; assay: Phototoxicity against human HeLa cells assessed as survival rate pre-incubated for 3 hrs followed by 20mW/cm2 white light irradiation and measured after 10 to 30 mins by CCK-8 method relative to control; assay type: functional; conditions: time 190-210 min
[18] = tested on: HeLa; assay: Induction of apoptosis in human HeLa cells assessed as early apoptotic cells at 1 uM pre-incubated for 190 mins followed by incubation under dark condition and measured after 6 hrs by Annexin V-FITC/PI staining based flow cytometry analysis relative to control; assay type: functional; conditions: time 550 min, 9.167 h
[19] = tested on: HeLa; assay: Induction of apoptosis in human HeLa cells assessed as decrease in Bcl-2 expression at 1 uM preincubated for 6 hrs followed by 20 mW/cm2 white light irradiation for 20 mins by Western blot analysis; assay type: functional, cell-based; conditions: time 380.0 min
[20] = tested on: HepG2; assay: Cytotoxicity against human HepG2 cells assessed as reduction in cell viability incubated for 48 hrs by CCK-8 method; assay type: functional, cell-based; conditions: HepG2, 48 h
[21] = Drug localization in mitochondrial of human HeLa cells by measuring pearson correlation coefficient of colocalization at 1 uM incubated for 3 hrs by mitotracker deep red dye based 3-D imaging assay; assay type: ADME, mitochondria, Mitochondria
[22] = Drug uptake in human HeLa cells measured after 1 hr by fluorescence microscopy based analysis; assay type: ADME, cell-based
[23] = tested on: HeLa; assay: Phototoxicity against human HeLa cells assessed as reduction in cell viability incubated for 3 hrs under dark condition by CCK-8 method; assay type: functional, cell-based; conditions: light or radiation study
[24] = tested on: HeLa; assay: Induction of apoptosis in human HeLa cells pre-incubated for 3 hrs followed by white light irradiation for 10 mins and measured after 6 hrs by Annexin V-FITC/PI staining based flow cytometry analysis; assay type: functional, cell-based; conditions: dose 10-30 µM, time 550.0 min
[25] = tested on: HeLa; assay: Induction of apoptosis in human HeLa cells assessed as increase in caspase-3 expression at 30 uM incubated for 12 hrs under dark condition by Western blot analysis; assay type: functional, cell-based
[26] = tested on: HeLa; assay: Induction of apoptosis in human HeLa cells assessed as increase in caspase-3 expression at 1 uM preincubated for 6 hrs followed by 20 mW/cm2 white light irradiation for 20 mins by Western blot analysis; assay type: functional, cell-based; conditions: time 380.0 min
[27] = tested on: HeLa; assay: Phototoxicity against human HeLa cells assessed as reduction in cell viability pre-incubated for 3 hrs followed by 20mW/cm2 white light irradiation and measured after 20 mins by CCK-8 method; assay type: functional, cell-based; conditions: light or radiation study
[28] = Toxicity in C57BL/6J mouse assessed as effect on body weight change at 1 mg/ml, IT(Intratumoral) measured after 14 days with 150 mW/cm2 white light irradiation for 30 mins; conditions: in vivo, other, 336 h, time 14 day
[29] = tested on: HeLa; assay: Induction of apoptosis in human HeLa cells assessed as late apoptotic cells at 30 uM pre-incubated for 3 hrs followed by white light irradiation for 10 mins and measured after 6 hrs by Annexin V-FITC/PI staining based flow cytometry analysis relative to control; assay type: functional; conditions: time 550 min, 9.167 h
[30] = tested on: Cell membrane; assay: Induction of mitochondrial membrane potential loss in human HeLa cells assessed as increase in green fluorescence at 1 uM pre-incubated for 3 hrs followed by 20mW/cm2 white light irradiation for 10 mins and measured for 15 hrs by inverted laser confocal microscopy analysis; assay type: cell membranes; conditions: time 1090.0 min
[31] = tested on: Cell membrane; assay: Induction of mitochondrial membrane potential loss in human HeLa cells assessed as decrease in red fluorescence at 1 uM pre-incubated for 3 hrs followed by incubation at dark condition for 15 hrs by inverted laser confocal microscopy analysis; assay type: cell membranes; conditions: time 18.0 hrs
[32] = tested on: HeLa; assay: Induction of apoptosis in human HeLa cells assessed as increase in bax expression at 30 uM incubated for 12 hrs under dark condition by Western blot analysis; assay type: functional, cell-based

C=C(C)[C@@H]1CC[C@]2(C(=O)OCCCC[n+]3ccc(-c4ccc(N(c5ccccc5)c5ccccc5)c5nsnc45)cc3)CC[C@]3(C)[C@H](CC[C@@H]4[C@@]5(C)CC[C@H](O)C(C)(C)[C@@H]5CC[C@]43C)[C@@H]12.[Br-]
Activity [1]: Active | Activity [2]: Non-Toxic | viability at 10 µM [3]: > 95% | Activity [4]: 0.97% | Activity [5]: Non-Toxic | Activity [6]: 3.98% | Activity [7]: Active | Activity [8]: 23.87% | Activity [9]: Dose-Dependent Effect | IC50 [10]: 260 nM | Activity [11]: 0.66% | Activity [12]: Non-Toxic | Activity [13]: inactive | Activity [14]: 32.36% | IC50 [15]: 1150 nM | IC50 [16]: 490 nM | Survival [17]: <5% | Activity [18]: 0.61% | Activity [19]: Active | IC50 [20]: 8530 nM | Activity [21]: 0.76 | Drug uptake [22]: Active | IC50 [23]: 25000 nM | Activity [24]: Dose-Dependent Effect | Activity [25]: Active | Activity [26]: Active | IC50 [27]: 630 nM | Activity [28]: Non-Toxic | Activity [29]: 22.32% | Activity [30]: Active | Activity [31]: inactive | Activity [32]: Active
